The source of these data is patent US5360796A, “Imidazo[1,2-a]pyridinylalkyl phosphonic acid compounds for treatment of neurotoxic injury” (G. D. Searle & Co., priority 1991, dated 1994).

Structures can show the parent of a compound that is named as a salt. Where two headings read alike, the source gives them in different places.

One test concerns the target NMDA receptor. As to the kind of experiment: NMDA-Selective Glutamate Binding Assay (L-[3H]glutamate). Also on record: species or system rat. Conditions: 12.5 nM L-[3H]glutamate, synaptic plasma membranes, read-out: NMDA Receptor Binding Data, Ki IC50 Binding NMDA. The method, then:
(§1) Synaptic plasma membranes (SPM) were prepared as previously described [Monahah, J. B. and Michel, J., "Identification and Characterization of an N-methyl-D-aspartate-specific L[^3 H]glutamate Recognition Site in Synaptic Plasma Membranes, J. Neurochem., 48, 1699-1708 (1987)]. The SPM were stored at a concentration of 10-15 mg/ml in 0.32M sucrose, 0.5 mM EDTA, 1 mM MgSO4, 5 mM Tris/SO4, pH 7.4, under liquid nitrogen. The identity and purity of the subcellular fractions were confirmed by both electron microscopy and marker enzymes. Protein concentrations were determined by using a modification of the method of Lowry [Ohnishi, S. T. and Barr, J. K., "A Simplified Method of Quantitating Proteins using the Biuret and Phenol Reagents", Anal. Biochem., 86, 193-197 (1978)]. The SPM were treated identically for the [^3 H]AMPA (QUIS), [^3 H]kainate and sodium-dependent L-[^3 H]-glumatate binding assays. The SPM were thawed at room temperature, diluted twenty-fold with 50mM Tris/acetate, pH 7.4, incubated at 37° C. for 30 minutes, and centrifuged at 100,000 g for 15 minutes. The dilution, incubation, and centrifugation was repeated a total of three times. Prior to use in the NMDA-specific L-[^3 H]-glutamate binding assay the SPM were thawed, diluted twenty fold with 50 mM Tris/acetate, pH 7.4 containing 0.04% (v/v) Triton X-100, incubated for 30 minutes at 37° C. and centrifuged as described above. The Triton X-100 treated membranes were washed with 50 mM Tris/acetate, pH 7.4 and centrifuged at 100,000 g for 15 minutes a total of four times. […] The basic procedure for the receptor subclass binding assays was similar. This general method involved adding the radioligand (12.5 nM L-[^3 H] glutamate; 0.5 nM [^3 H]kainate or 10 nM [^3 H]AMPA) to the appropriate concentration of the test compound and initiating the assay by the addition of ice cold synaptic plasma membranes (0.2-0.45 mg). The binding assays were performed in 1.5 mL centrifuge tubes with the total volume adjusted to 1.0 mL. Additions of test compounds were made in 50 mM Tris/acetate, pH 7.4 and incubations were carried out at 0°-4° C. The incubation time for the NMDA and the AMPA binding assays was 10 minutes, for the kainate binding assay 60 minutes and for the sodium-dependent glutamate binding assay 15 minutes. The AMPA binding assay contained 100 mM KSCN and the sodium-dependent glutamate binding assay contained 150 mM sodium acetate in addition to the previously described reagents. To terminate the incubation, the samples were centrifuged for 15 minutes at 12,000 g and 4° C. in a Beckman Microfuge 12. The supernatant was aspirated and the pelleted membranes dissolved in Beckman BTS-450 tissue solubilizer for a minimum of 6 hours at room temperature. Beckman MP scintillation cocktail containing 7 mL/1 acetic acid was then added and the samples counted on a Beckman LS 5800 or 3801 liquid scintillation counter with automatic corrections for quenching and counting efficiency. Nonspecific binding was defined as the residual binding in the presence of either excess L-glutamate (0.1-0.4 mM), kainate (0.01 mM), or NMDA (0.5 mM), and was 15-25% of the total binding in the NMDA binding assay, 19-27% in the AMPA binding assay, 20-30% in the kainate binding assay and 10-15% in the sodium-dependent binding assay. Radioligand binding to the synaptic plasma membranes was analyzed using Scatchard and Hill transformations and the Ki values of the compounds determined using logit-log transformations. Calculations and regression analysis were performed using templates developed for Lotus 1, 2, 3 as previously described [Pullan, L. M. "Automated Radioligand Receptor Binding Analysis with Templates for Lotus", Computer Appln. Biosci., 3, 131 (1987)]. Binding results are reported in Table I for example compounds of the invention.

Another test addresses AMPA. The test is described as follows: [3H]AMPA (QUIS) binding assay. On the set-up: species or system rat. Conditions: 10 nM [3H]AMPA, 100 mM KSCN, synaptic plasma membranes, pH 7.4, 0-4° C., 10 min; read-out: NMDA Receptor Binding Data, Ki IC50 Binding AMPA. The method, then: as §1
Test [1] deals with TCP (1-[1-(2-thienyl)cyclohexyl]piperidine) binding. The test is described as follows: TCP Modulation Assay. On the set-up: species or system rat. The conditions noted are these: for Ki: 2 nM tritiated TCP, 0.05 mM L-glutamate, rat brain SPM, read-out: TCP Ki IC50. The method, then: The effect on the TCP (1-[1-(2-thienyl)cyclohexyl]piperidine) binding was measured in rat brain synaptic membranes (SPM) prepared as previously described [J. B. Monahah & J. Michel; J. Neurochem. […] Prior to their use in the binding assay, frozen SPM were thawed, diluted twenty fold with 50 mM Tris/acetate (pH 7.4 containing 0.04% (v/v) Triton X-100), incubated for 30 min. at 37° C. and centrifuged at 95,000 xg for 15 min. The Triton X-100 treated SPM were washed with 5 mM Tris/HCl, pH 7.4 and centrifuged a total of six times. […] The samples were filtered through glass fiber filters (Schleicher & Schuell #32) which have been pretreated with 0.05% (v/v) polyethylenimine, washed 4 times with 2 ml of ice-cold 5 mM Tris/HCl buffer, and then counted on a Beckman LS 5800 liquid scintillation counter with automatic corrections for quenching and counting efficiency. Inhibition of TCP binding was measured as a decrease in the binding in the presence of 0.05 mM L-glutamate. Non-specific binding was defined as the residual binding in the presence of […] phencyclidine.

A further test concerns cGMP in cerebellum. As to the kind of experiment: Assay for Effect on cGMP Levels in Cerebellum. In kind it is in vivo, mouse (Swiss-Webster). Conditions: Mus musculus, sc, 0.5 h; 30 min prior to sacrifice; read-out: Decrease in cGMP ED50. Here is the method: The purpose of this assay is to determine the extent of in vivo bioavailability and the potency as an NMDA antagonist of compound of the invention as compared to known NMDA antagonists, namely, 3(2-carboxypiperizine-4-yl)propyl-1-phosphonic acid (CPP) and cis-4-phosphonomethyl-2-piperidinecarboxylic acid (CGS 19755). Male Swiss-Webster mice (17-24 g were injected sub-cutaneously (s.c.) with compound of the invention and the known NMDA antagonist standards 30 minutes prior to sacrifice by focussed microwave irradiation. Groups consisted of 7-10 mice. Compounds of Ex. #7 was dissolved in isotonic saline and all compounds were administered in a volume of 0.2 ml per mouse. Cerebella samples were extracted in IN HCl. Hydrochloric acid in extracts of the cerebellum were freeze-dried for assay of cGMP with a commercial RIA kit (NEN). Statistics (Dunett's t-test) were performed as described previously [P. L. Wood et al., Neurochem., 19, 975-982 (1980)]. ED50 values were calculated from log-logit transformation of the dose-response data.

A further test has as its system NMDA. The conditions noted are these: D. E. Murphy et al, J. Pharmacol. Exp. Ther. 1987; cited from earlier work.

With `O=C(O)c1cn2c(C(O)P(=O)(O)O)cccc2n1` (stereo not drawn) [Example 57, 5-(hydroxyphosphonomethyl)imidazo[1,2-a]pyridine-2-carboxylic acid, monohydrochloride], the Ki (commonly the equilibrium dissociation constant of an inhibitor or competing ligand from its target) at NMDA receptor (pH 7.4, 0-4° C., 10 min) was 5.8 µM; on AMPA, greater than 300 µM. In test [1] (no number given), the “TCP Binding Data (result in words)” value is recorded as “Antag”.
On to `Cc1ccc(P(=O)(O)O)c2nc(C(=O)O)cn12` [Example 49, 5-methyl-8-phosphonoimidazo[1,2-a]pyridine-2-carboxylic acid], for which, on NMDA receptor (pH 7.4, 0-4° C., 10 min), the inhibitory constant (Ki) was greater than 10 µM.
Consider `O=C(O)C1CN(CCCP(=O)(O)O)CCN1` (stereo not drawn) [CPP, 3-(2-carboxypiperazin-4-yl)propyl-1-phosphonic acid, reference compound], for which the 50% effective dose (ED50) – broadly, the dose that gives a 50% effect, or the effect in half of the subjects – with cGMP in cerebellum was determined as 7.4 mg/kg. Further, the “NMDA antagonism (in words)” value with NMDA is “potent and selective NMDA antagonist”.
For the compound `O=C(O)c1cn2cccc(CP(=O)(O)O)c2n1` [Example 23, 8-(phosphonomethyl)imidazo[1,2-a]pyridine-2-carboxylic acid], the Ki is 4.5 µM on NMDA receptor (pH 7.4, 0-4° C., 10 min); 10.5 µM on NMDA receptor (Second batch); greater than 300 µM on AMPA; 14 µM in test [1] (pH 7.4, 25° C., 60 min); 7.7 µM in test [1] (second batch).
Consider `O=C(O)[C@H]1C[C@@H](CP(=O)(O)O)CCN1` (relative stereo) [CGS 19755, cis-4-phosphonomethyl-2-piperidinecarboxylic acid, reference compound], for which the ED50 with cGMP in cerebellum stood at 1 mg/kg.
In the case of `O=C(O)c1cn2cc(CP(=O)(O)O)ccc2n1` [Example 13, 6-(phosphonomethyl)imidazo[1,2-a]pyridine-2-carboxylic acid], the Ki is greater than 100 µM on NMDA receptor (pH 7.4, 0-4° C., 10 min) and greater than 300 µM on AMPA.
For the compound `O=C(O)c1cn2c(P(=O)(O)O)cccc2n1` [Example 53, 5-phosphonoimidazo[1,2-a]pyridine-2-carboxylic acid], the Ki on NMDA receptor (pH 7.4, 0-4° C., 10 min) was greater than 10 µM.
As for `O=C(O)c1cn2ccc(CP(=O)(O)O)cc2n1` [Example 18, 7-(phosphonomethyl)imidazo[1,2-a]pyridine-2-carboxylic acid], the Ki on NMDA receptor (pH 7.4, 0-4° C., 10 min) was greater than 100 µM; at AMPA it was greater than 300 µM.
The corresponding values for `O=C(O)c1cn2c(CP(=O)(O)O)c(Cl)ccc2n1` [Example 30, 6-chloro-5-(phosphonomethyl)imidazo[1,2-a]pyridine-2-carboxylic acid] are greater than 100 µM and greater than 300 µM.
With `Cc1c(C(=O)O)nc2c(CP(=O)(O)O)cccn12` [Example 67, 3-methyl-8-(phosphonomethyl)imidazo[1,2-a]pyridine-2-carboxylic acid, monohydrochloride], the Ki at NMDA receptor (pH 7.4, 0-4° C., 10 min) is greater than 100 µM; at AMPA, greater than 300 µM.
